Tests used:
MDA-MB-231 cells = experiment: Inhibition of cellular supermere uptake by uptake inhibitors; type: cell-based, human; details: 30 min pre-incubation with inhibitor, labeled supermeres 24 h, 100 nM bafilomycin A
Procedure: (§1) For inhibitor treatment before supermere uptake, MDA-MB-231 cells were seeded at 20,000 cells per well or Hela cells at 25,000 cells per well on a 35-mm dish (P35G-0.170-14-C, MatTek Corporation) in DMEM culture media. Twenty-four hours later, cells were pre-incubated with the inhibitors in serum free DMEM media for 30 min. The following inhibitors were used: 100 nM bafilomycin A (Sigma, SML1661-. 1ML), 20 μM dynasore (Sigma, D7693-5 MG), 25 μM CK666 (Sigma, SML0006), 5 μM cytochalasin D (Sigma, C2618-200 ul). The Alexa Fluor 647-labeled supermeres (40 μg/ml) were added to the cells for 24 h in the presence of indicated inhibitors. […] Brightfield (30 ms exposure time) and fluorescence (640 Far Red, 10% laser power, 100 ms exposure time) images were taken of 10 or more fields of view, each with several cells per field. Three z-slices 1 μm apart were taken of each fluorescent field and the brightest slice was analyzed.
(§2) Brightfield images were used to identify cell boundaries and an ROI was drawn manually around each cell in each field of view. These region of interests (ROIs) were then opened on the fluorescent image and the mean fluorescence intensity of each ROI (cell) was measured. For each field of view, a background ROI was drawn in a region with no cells, and this background value was subtracted from each cell fluorescence mean in the field of view. […]

Hela cells = experiment: as above; type: cell-based; details: 30 min pre-incubation with inhibitor, labeled supermeres 24 h, 100 nM bafilomycin A
Procedure: as §1, §2

CO/C1=C\C(C)=C\[C@@H](C)[C@@H](O)[C@@H](C)C/C(C)=C/C=C/[C@H](OC)[C@@H]([C@@H](C)[C@@H](O)[C@H](C)[C@@]2(O)C[C@@H](O)[C@H](C)[C@@H](C(C)C)O2)OC1=O [bafilomycin A]
inhibition of supermere internalization (MDA-MB-231 cells): greatest inhibition of supermere internalization
inhibition of supermere internalization (Hela cells): greatest inhibition of supermere internalization
